# Measured values taken from patent publication US20240300980A1, “HETEROCYCLIC COMPOUNDS AS KRAS INHIBITOR, AND PREPARATION THEREFOR AND USE THEREOF IN TREATMENT” (SHANGHAI KECHOW PHARMA, INC., priority 2021, published 2024).
# System: AGS cells (KRAS^G12D)
# Assay: Detection of cell proliferation in vitro by MTT/MTS method (cell activity experiment)
# Assay type: cell-based
# Details: AGS cells; MTT/MTS; 3 days of drug treatment; read-out: AGS IC50
# Outline: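 After 3-day compound exposure (final DMSO 0.5%), viability of AGS (KRAS G12D) cells, plated 1000/well one day before dosing, was measured at 490 nm following 4 h MTT or MTS incubation. IC50 was fitted from dose–effect curves relative to DMSO-treated wells.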
row,SMILES,IC50
1,"Oc1cc2c(c(-c3ncc4c(N5C[C@H]6CC[C@@H](C5)N6)nc(OC[C@@]56CCCN5C[C@H](F)C6)nc4c3F)c1)CCCC2 [Example 419, 4-(4-((1R,5S)-3,8-diazabicyclo[3.2.1]octan-3-yl)-8-fluoro-2-(((2R,7aS)-2-fluorotetrahydro-1H-pyrrolizin-7a(5H)-yl)methoxy)pyrido[4,3-d]pyrimidin-7-yl)-5,6,7,8-tetrahydronaphthalen-2-ol]",14 nM

# Same assay, conditions: Homo sapiens, AGS, 72 h, AGS cells; MTT/MTS; 3 days of drug treatment; read-out: AGS IC50
row,SMILES,IC50
1,"C#Cc1c(F)ccc2cc(O)cc(-c3ncc4c(N5C[C@H]6CC[C@@H](C5)N6)c(C#N)c(OC[C@@]56CCCN5C[C@H](F)C6)nc4c3F)c12 [Example 191, 4-((1R,5S)-3,8-diazabicyclo[3.2.1]octan-3-yl)-7-(8-ethynyl-7-fluoro-3-hydroxynaphthalen-1-yl)-8-fluoro-2-(((2R,7aS)-2-fluorotetrahydro-1H-pyrrolizin-7a(5H)-yl)methoxy)-1,6-naphthyridine-3-carbonitrile]",120 nM
2,"CCc1c(F)ccc2cc(O)cc(-c3ccc4c(N5C[C@H]6CC[C@@H](C5)N6)c(C#N)c(OC[C@@]56CCCN5C[C@H](F)C6)nc4c3F)c12 [Example 178, 4-((1R,5S)-3,8-diazabicyclo[3.2.1]octan-3-yl)-7-(8-ethyl-7-fluoro-3-hydroxynaphthalen-1-yl)-8-fluoro-2-(((2R,7aS)-2-fluorotetrahydro-1H-pyrrolizin-7a(5H)-yl)methoxy)quinoline-3-carbonitrile]",535 nM
3,"C#Cc1c(F)ccc2cc(O)cc(-c3ncc4c(N5CCC6(CCCS6)CC5)nc(OC[C@@]56CCCN5C[C@H](F)C6)nc4c3F)c12 [Example 49, 5-ethynyl-6-fluoro-4-(8-fluoro-2-(((2R, 7aS)-2-fluorotetrahydro-1H-pyrrolizin-7a(5H)-yl)methoxy)-4-(1-thia-8-azaspiro[4.5]decan-8-yl)pyrido[4,3-d]pyrimidin-7-yl)naphthalen-2-ol]",> 10000 nM
4,"Cc1cc(N)nc(-c2ncc3c(N4C[C@H]5CC[C@@H](C4)N5)nc(OCC4(CN5CCCC5)CC4)nc3c2F)c1C(F)(F)F [Example 8, 6-(4-((1R,5S)-3,8-diazabicyclo[3.2.1]octan-3-yl)-8-fluoro-2-((1-(pyrrolidin-1-ylmethyl)cyclopropyl)methoxy)pyrido[4,3-d]pyrimidin-7-yl)-4-methyl-5-(trifluoromethyl) pyridin-2-amine]",> 1000 nM
5,"Oc1cc(-c2ncc3c(C4C[C@H]5CC[C@@H](C4)N5)nc(OC[C@@]45CCCN4C[C@H](F)C5)nc3c2F)c2c(F)cccc2c1 (stereo partly drawn) [Example 82, 4-(4-((1R,5S)-8-azabicyclo[3.2.1]octan-3-yl)-8-fluoro-2-(((2R,7aS)-2-fluorotetrahydro-1H-pyrrolizin-7a(5H)-yl)methoxy)pyrido [4,3-d]pyrimidin-7-yl)-5-fluoronaphthalen-2-ol]",> 2500 nM
6,"C#Cc1c(F)ccc2cc(O)cc(-c3cc4nc(OC[C@@]56CCCN5C[C@H](F)C6)c(C#N)c(N5C[C@H]6CC[C@@H](C5)N6)c4cn3)c12 [Example 188, 4-((1R,5S)-3,8-diazabicyclo[3.2.1]octan-3-yl)-7-(8-ethynyl-7-fluoro-3-hydroxynaphthalen-1-yl)-2-(((2R,7aS)-2-fluorotetrahydro-1H-pyrrolizin-7a(5H)-yl)methoxy)-1,6-naphthyridine-3-carbonitrile]",1550 nM
7,"Oc1cc(-c2ncc3c(N4C[C@H]5CC[C@@H](C4)N5)c(C(F)(F)F)c(OC[C@@]45CCCN4C[C@H](F)C5)nc3c2F)c2c(F)c(F)ccc2c1 [Example 198, 4-(4-((1R,5S)-3,8-diazabicyclo[3.2.1]octan-3-yl)-8-fluoro-2-(((2R,7aS)-2-fluorotetrahydro-1H-pyrrolizin-7a(5H)-yl)methoxy)-3-(trifluoromethyl)-1,6-naphthyridin-7-yl)-5,6-difluoronaphthalen-2-ol]",> 2500 nM
8,"Oc1cc2c(c(-c3ncc4c(N5C[C@H]6CC[C@@H](C5)N6)nc(OC[C@@]56CCCN5C[C@H](F)C6)nc4c3F)c1)C1(CC2)CC1 [Example 255, 7′-(4-((1R,5S)-3,8-diazabicyclo[3.2.1]octan-3-yl)-8-fluoro-2-(((2R,7aS)-2-fluorotetrahydro-1H-pyrrolizin-7a(5H)-yl)methoxy)pyrido[4,3-d]pyrimidin-7-yl)-2′,3′-dihydrospiro[cyclopropane-1,1′-inden]-5′-ol]",157 nM
9,"C#Cc1c(F)ccc2cc(O)cc(-c3c(F)c4nc(OC[C@@]56CCCN5C[C@H](F)C6)nc(N5C[C@H]6CC[C@@H](C5)N6)c4c4cncn34)c12 [Example 398, 4-(1-((1R,5S)-3,8-diazabicyclo[3.2.1]octan-3-yl)-5-fluoro-3-(((2R,7aS)-2-fluorotetrahydro-1H-pyrrolizin-7a(5H)-yl)methoxy)imidazo[1′,5′:1,2]pyrido[4,3-d]pyrimidin-6-yl)-5-ethynyl-6-fluoronaphthalen-2-ol]",50 nM
10,"Oc1cc(N2CCc3c(nc(OC[C@@]45CCCN4C[C@H](F)C5)nc3N3C[C@H]4CC[C@@H](C3)N4)C2)c2c(Cl)c(F)ccc2c1 [Example 208, 4-(4-((1R,5S)-3,8-diazabicyclo[3.2.1]octan-3-yl)-2-(((2R,7aS)-2-fluorotetrahydro-1H-pyrrolizin-7a(5H)-yl)methoxy)-5,8-dihydropyrido[3,4-d]pyrimidin-7(6H)-yl)-5-chloro-6-fluoronaphthalen-2-ol]",20 nM
11,"CCc1coc2cc(O)cc(-c3ncc4c(N5C[C@H]6CC[C@@H](C5)N6)nc(OC[C@@]56CCCN5C[C@H](F)C6)nc4c3F)c12 [Example 244, 4-(4-((1R,5S)-3,8-diazabicyclo[3.2.1]octan-3-yl)-8-fluoro-2-(((2R,7aS)-2-fluorotetrahydro-1H-pyrrolizin-7a(5H)-yl)methoxy)pyrido[4,3-d]pyrimidin-7-yl)-3-ethylbenzofuran-6-ol]",59 nM
12,"CN1CCc2cc(O)cc(-c3ncc4c(N5C[C@H]6CC[C@@H](C5)N6)nc(OC[C@@]56CCCN5C[C@H](F)C6)nc4c3F)c2C1=O [Example 273, 8-(4-((1R,5S)-3,8-diazabicyclo[3.2.1]octan-3-yl)-8-fluoro-2-(((2R,7aS)-2-fluorotetrahydro-1H-pyrrolizin-7a(5H)-yl)methoxy)pyrido[4,3-d]pyrimidin-7-yl)-6-hydroxy-2-methyl-3,4-dihydroisoquinolin-1(2H)-one]",> 2500 nM
13,"C#Cc1c(F)ccc2cc(O)cc(-c3ncc4c(N5C[C@H]6CC[C@@H](C5)N6)nc(OCC56CCN(C)C5COC6)nc4c3F)c12 (stereo partly drawn) [Example 75, 4-(4-((1R,5S)-3,8-diazabicyclo[3.2.1]octan-3-yl)-8-fluoro-2-((1-methyltetrahydro-1H-furo[3,4-b]pyrrol-3a(4H)-yl)methoxy)pyrido[4,3-d]pyrimidin-7-yl)-5-ethynyl-6-fluoronaphthalen-2-ol]",> 2500 nM
14,"CCC1c2c(C3=C(F)c4nc(OC[C@@]56CCCN5C[C@H](F)C6)nc(N5C[C@H]6CC[C@@H](C5)N6)c4C4=NCCN43)cc(O)cc2C2CC21 (stereo partly drawn) [Example 409, 5-(10-((1R,5S)-3,8-diazabicyclo[3.2.1]octan-3-yl)-6-fluoro-8-(((2R,7aS)-2-fluorotetrahydro-1H-pyrrolizin-7a(5H)-yl)methoxy)-2,3-dihydroimidazo[1′,2′:1,2]pyrido[4,3-d]pyrimidin-5-yl)-6-ethyl-1,1a,6,6a-tetrahydrocyclopropa[a]inden-3-ol]",45 nM
15,"C#Cc1c(F)ccc2cc(O)cc(-c3ccc4c(N5C[C@H]6CC[C@@H](C5)N6)nc(OC[C@@]56CCCN5C[C@H](F)C6)nc4c3)c12 [Example 148, 4-(4-((1R,5S)-3,8-diazabicyclo[3.2.1]octan-3-yl)-2-(((2R, 7aS)-2-fluorotetrahydro-1H-pyrrolizin-7a(5H)-yl)methoxy)quinazolin-7-yl)-5-ethynyl-6-fluoronaphthalen-2-ol]",318 nM
16,"CCC1CCCc2cc(O)cc(-c3cc4nc(OC[C@@]56CCCN5C[C@H](F)C6)nc(N5C[C@H]6CC[C@@H](C5)N6)c4c4occc34)c21 (stereo partly drawn) [Example 388, 4-(9-((1R,5S)-3,8-diazabicyclo[3.2.1]octan-3-yl)-7-(((2R,7aS)-2-fluorotetrahydro-1H-pyrrolizin-7a(5H)-yl)methoxy)furo[2,3-f]quinazolin-4-yl)-5-ethyl-5,6,7,8-tetrahydronaphthalen-2-ol]",493 nM
17,"C#Cc1c(F)ccc2cc(O)cc(-c3ccc4c(N5CCC(NS(C)(=O)=O)C5)nc(OC[C@@]56CCCN5C[C@H](F)C6)nc4c3F)c12 (stereo partly drawn) [Example 117, N-(1-(7-(8-ethynyl-7-fluoro-3-hydroxynaphthalen-1-yl)-8-fluoro-2-(((2R, 7aS)-2-fluorotetrahydro-1H-pyrrolizin-7a(5H)-yl)methoxy)quinazolin-4-yl)pyrrolidin-3-yl)methanesulfonamide]",> 2500 nM
18,"O=C1CCCc2cc(O)cc(-c3ncc4c(N5C[C@H]6CC[C@@H](C5)N6)nc(OC[C@@]56CCCN5C[C@H](F)C6)nc4c3F)c21 [Example 249, 8-(4-((1R,5S)-3,8-diazabicyclo[3.2.1]octan-3-yl)-8-fluoro-2-(((2R,7aS)-2-fluorotetrahydro-1H-pyrrolizin-7a(5H)-yl)methoxy)pyrido[4,3-d]pyrimidin-7-yl)-6-hydroxy-3,4-dihydronaphthalen-1(2H)-one]",> 2500 nM
19,"C#Cc1c(F)ccc2cc(O)cc(-c3ccc4c(N5CC6CCC(C5)[S+]6[O-])nc(OC[C@@]56CCCN5C[C@H](F)C6)nc4c3F)c12 (stereo partly drawn) [Example 159, (1R,5S,8R)-3-(7-(8-ethynyl-7-fluoro-3-hydroxynaphthalen-1-yl)-8-fluoro-2-(((2R,7aS)-2-fluorotetrahydro-1H-pyrrolizin-7a(5H)-yl)methoxy)quinazolin-4-yl)-8-thia-3-azabicyclo[3.2.1]octane 8-oxide]",> 2500 nM
20,"Oc1cc2c(c(C3=C(F)c4nc(OC[C@@]56CCCN5C[C@H](F)C6)nc(N5C[C@H]6CC[C@@H](C5)N6)c4C4=NCCN43)c1)CCCC2 [Example 406, 4-(10-((1R,5S)-3,8-diazabicyclo[3.2.1]octan-3-yl)-6-fluoro-8-(((2R,7aS)-2-fluorotetrahydro-1H-pyrrolizin-7a(5H)-yl)methoxy)-2,3-dihydroimidazo[1′,2′:1,2]pyrido[4,3-d]pyrimidin-5-yl)-5,6,7,8-tetrahydronaphthalen-2-ol]",120 nM
